The test system of assay [1] is CT-26 Colon carcinoma cells. In words: CT-26 colon carcinoma lung metastases model, alone or with doxorubicin or docetaxel. The format is in vivo, Balb/C mice. The conditions noted are these: CT-26 lung metastases; I.P. every 3 days for 3 cycles; day 20. On the procedure:
FIG. 3 illustrates the effect of compounds administered in conjunction with doxorubicin in an in vivo model of metastatic colon cancer (CT-26 adenocarcinoma). Syngeneic CT-26 Colon carcinoma cells were injected I.V. in order to establish lung metastases in Balb/C mice. Beginning 10 days after cells were injected, indicated test agents were given I.P. every 3 days for 3 cycles. Animals were sacrificed at day 20, lungs were collected, and weighed. Net tumor burden is the weight of tumor-bearing lungs minus the average weight of normal control lungs. N=5/group, p<0.02. In these graphs, compound A is 6,7-bis(4-hydroxyphenyl)-pteridin-4-ylamine sulfate salt, and compound B is 6,7-diphenyl-pteridine-2,4-diamine.
FIG. 4 illustrates the effects of compounds of the present invention for co-drug therapy with Taxotere as described herein. Syngeneic CT-26 Colon carcinoma cells were used in order to establish lung metastases in Balb/C mice as described for FIG. 3. 6,7-bis(4-hydroxyphenyl)-pteridin-4-ylamine, sulfate salt (compound A) and 6,7-diphenyl-pteridine-2,4-diamine (compound B) from FIG. 1 are shown in FIG. 4.
FIG. 6 illustrates the effect of compounds administered in conjunction with docetaxel in the in vivo model of metastatic colon cancer (CT-26 adenocarcinoma) described for FIG. 4. N=5/group, p<0.02. […]

Assay [2] relates to cerebral stroke. In words: Cerebral stroke model, permanent middle cerebral artery occlusion. The conditions noted are these: 1 mg/kg BW IV 60 min after ligation, 24 hours. The format is in vivo, mice. On the procedure:
A rodent model of cerebral stroke, in which the middle cerebral artery is permanently occluded, was used to determine whether test agents reduced infarct size at 24 hours.
Cerebral strokes were created in mice by permanent ligation of the middle cerebral artery using a cauterizing tool, followed 60 min later by IV injection of either vehicle alone (50% PEG400 in water) or test agents (at 1 mg/kg BW). Twenty four hours later, brains were sectioned and stained using triphenyltetrazolium chloride to delineate viable from infarcted tissue. Photographic images were then analyzed using morphometric software to calculate infarct area.

Counter-ions that a name gives are not always drawn.

`Nc1ncnc2nc(-c3ccc(O)cc3)c(-c3ccc(O)cc3)nc12` [compound A, 6,7-bis(4-hydroxyphenyl)-pteridin-4-ylamine sulfate salt]: in assay [1], the “reduction of tumor burden in combination with docetaxel” value was “greater than 80%” and the “reduction of tumor burden in combination with doxorubicin” value is reported as “greater than 60%”. In addition, in assay [2], the “Infarct area in mm^3 (mean ± SEM)” value was 18.3 ± 2.6 mm^3. For the same molecule, the “% Infarct reduction” value in assay [2] (vs vehicle) is recorded as 53%.

For the origin of these results see US20050282814A1, “Vasculostatic agents and methods of use thereof” (TargeGen, Inc., priority 2002, published 2005).
